The source of these data is US8293773B2, “1, 2, 3-triazole derivatives as new cannabinoid-1 receptor antagonists” (National Tsing Hua University, priority 2008, dated 2012).

The target in this assay is T1, human CB1 receptor (Homo sapiens, UniProt P21554).
T1 construct: expressed in transfected cells; membrane-enriched fractions
In words: competitive radioligand binding assay, displacement of [3H]CP55,940, CB1. The following applies: for inhibition at 10 µM / CB1 Inhibition (%) (10 μM): percent inhibition at 10 μM; for IC50: displacement of specific [3H]-CP55940 binding in HEK 293 cells stably transfected with human CB1 receptor. As for the experimental part: In addition, the affinity of test compounds of this invention toward CB1 and CB2 receptors was determined by competitive radioligand binding assays in vitro. This method differentiates the binding strength between compounds by their abilities in displacing a receptor-specific radioactive ligand. […] The readings of the radioactivity retained allow further analysis of receptor binding, and assist in predictions of the pharmacological activities of the test compounds.
In the assays, CB1 receptors are from human CB1 stably expressed cell lines, and CB2 receptors are from human CB2 stably expressed cell lines. For purification of membrane-enriched fractions, cells were scraped off from the culture dishes in ice-cold buffer A (50 mM Tris, 5 mM MgCl2, 2.5 mM EDTA, pH 7.4, 10% sucrose) with 1 mM PMSF. After sonication, the membrane-enriched fractions were centrifuged for 15 minutes at 2,000×g at 4° C. The supernatant was centrifuged again for 30 minutes at 43,000×g at 4° C. The final pellet was re-suspended in buffer A and stored at −80° C. The protein concentration of the purified membrane was determined by the Bradford method as described by the manual provided by Bio-Rad Laboratories, Inc., Hercules, Calif.
During the receptor binding experiments, 0.2˜8 μg of membrane fractions were incubated with 0.75 nM [^3H]CP55,940 and a test compound in the incubation buffer of 50 mM Tris-HCl, 5 mM MgCl2, 1 mM EDTA, 0.3% BSA, pH 7.4. The non-specific binding was determined by using 1 μM of CP55,940. The mixture was incubated for 1.5 hours at 30° C. in Multiscreen microplates (Millipore, Billerica, Mass.). At the completion of the incubation, the reaction was terminated by Manifold filtration and washed with ice-cold wash buffer (50 mM Tris, pH 7.4, 0.25% BSA) four times. The radioactivity bound to the filters was measured by Topcount (Perkin Elmer Inc.).
In general terms: Loss of bound radioactivity is the signal in a displacement assay; it reports binding, not function.

T1 sequence (P21554 whole entry): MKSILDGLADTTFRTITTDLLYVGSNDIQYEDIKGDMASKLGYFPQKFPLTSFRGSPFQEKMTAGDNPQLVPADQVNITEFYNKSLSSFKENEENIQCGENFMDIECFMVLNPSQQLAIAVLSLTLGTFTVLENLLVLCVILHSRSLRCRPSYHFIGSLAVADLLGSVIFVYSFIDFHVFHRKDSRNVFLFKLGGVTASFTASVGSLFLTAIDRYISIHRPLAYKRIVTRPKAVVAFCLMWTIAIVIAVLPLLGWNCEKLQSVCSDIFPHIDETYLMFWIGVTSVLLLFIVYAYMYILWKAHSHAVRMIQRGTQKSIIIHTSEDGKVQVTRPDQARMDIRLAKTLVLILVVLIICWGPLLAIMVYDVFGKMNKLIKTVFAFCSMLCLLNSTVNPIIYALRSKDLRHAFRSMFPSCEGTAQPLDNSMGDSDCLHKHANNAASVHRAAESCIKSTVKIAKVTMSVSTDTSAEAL

One may read the inhibition as the share of the control response that was lost under treatment. High values mean a response far below the control, low ones a response near the control. A word on the IC50: it is the concentration that gives 50% inhibition. High values mean weaker potency in that assay, low ones greater potency in that assay. Regarding `CCCCCCOC(=O)Cn1nc(-c2ccc(Cl)cc2Cl)c(-c2ccc(Cl)cc2Cl)n1` [Compound 115], the IC50 stood at 4460 ± 698 nM. Under “Table 2”, at 10 µM the inhibition was 72.7%.

Regarding `O=C(Cn1nnc(-c2ccc(Cl)cc2Cl)c1-c1ccc(Cl)cc1)N1CCCCC1` [Compound 47], for the setting “Table 1”, the inhibition at 10 µM was determined as 61.8%.

On to `COC[C@H](NC(=O)Cn1nc(-c2ccc(Cl)cc2)c(-c2ccc(Cl)cc2Cl)n1)[C@@H](O)c1ccccc1` [Compound 140], for which the IC50 stood at 1050 ± 256 nM.

In turn, `O=C(Cn1nc(-c2ccc(Cl)cc2)c(-c2ccc(Cl)cc2Cl)n1)NCc1ccc(Cl)c(Cl)c1` [Compound 153] displayed an IC50 of 1060 ± 656 nM. The compound further had an inhibition at 10 µM (Table 2) of 87%.

For the compound `O=C(Cn1nc(-c2ccc(Cl)cc2Cl)c(-c2ccc(Cl)cc2Cl)n1)Oc1ccccc1` [Compound 124], 10 µM produced 14.3% inhibition (Table 2).

`CCCCOC(=O)Cn1nnc(-c2ccccc2)c1-c1ccc(C#N)cc1` [Compound 31]: at 10 µM the inhibition (Table 1) was 18.9%.

`CCCCOC(=O)Cn1nnc(-c2cc(Cl)cc(Cl)c2)c1-c1cc(Cl)cc(Cl)c1` [Compound 23]: under “Table 1”, 10 µM produced 29.9% inhibition.

`CCCCOC(=O)Cn1nnc(-c2ccccc2)c1-c1ccc(C(=O)OC)cc1` [Compound 29] yielded an inhibition at 10 µM (Table 1) of 31.9%.

With `O=C(Cn1nc(-c2ccccc2)c(-c2ccccc2)n1)NC1CCCCC1` [Compound 123], the inhibition at 10 µM (Table 2) came out at 11.6%.

Consider `O=C(Cn1nc(-c2ccc(Cl)cc2)c(-c2ccc(Cl)cc2Cl)n1)NC1CCc2ccccc21` (stereo not shown) [Compound 163], for which the IC50 amounted to 2070 ± 186 nM. The compound further showed an inhibition at 10 µM (Table 2) of 76.6%.

Regarding `CCCCOC(=O)Cn1nnc(-c2ccc(OC)cc2)c1-c1ccc(OC)cc1` [Compound 34], the inhibition at 10 µM (Table 1) came to 45.9%.

On to `O=C(Cn1nnc(-c2ccc(F)c(Cl)c2)c1-c1ccc(F)c(Cl)c1)N1CCCCC1` [Compound 12], for which the inhibition at 10 µM (Table 1) amounted to 30.7%.

As to `O=C(Nc1ccc(Cl)cc1)n1nc(-c2ccc(Cl)cc2)c(-c2ccc(Cl)cc2)n1` [Compound 79], the inhibition at 10 µM (Table 2) is 1.5%.

`CCCCCNC(=O)n1nc(-c2ccc(Cl)cc2Cl)c(-c2ccc(Cl)cc2Cl)n1` [Compound 88]: 10 µM produced 7% inhibition (Table 2).

`O=C(NC12CC3CC(CC(C3)C1)C2)n1nc(-c2ccc(Cl)cc2Cl)c(-c2ccc(Cl)cc2Cl)n1` [Compound 113] yielded an IC50 of 4500 ± 871 nM. The compound further returned an inhibition at 10 µM (Table 2) of 78.9%.

In turn, `CCCCOC(=O)Cn1nnc(-c2ccc(Br)cc2)c1-c1ccc(Br)cc1` [Compound 53] came in with an inhibition at 10 µM (Table 1) of 68.7%.

As for `COc1cccc(CNC(=O)Cn2nc(-c3ccc(Cl)cc3)c(-c3ccc(Cl)cc3Cl)n2)c1` [Compound 156], the inhibition at 10 µM (Table 2) is 69.5%.

`O=C(c1ccccc1Cl)n1nc(-c2ccccc2)c(-c2ccccc2)n1` [Compound 67] gave an inhibition at 10 µM (Table 2) of 13.1%.

On to `O=C(Cn1nnc(-c2ccccc2)c1-c1ccccc1F)N1CCCCC1` [Compound 52], for which, under “Table 1”, the inhibition at 10 µM was 11%.

As to `Cc1cccc(CNC(=O)Cn2nc(-c3ccc(Cl)cc3)c(-c3ccc(Cl)cc3Cl)n2)c1` [Compound 155], the IC50 was 473 ± 300 nM. The inhibition at 10 µM (Table 2) amounted to 85%.

Under “Table 2”, `O=C(NCCc1ccccc1)n1nc(-c2ccc(Cl)cc2)c(-c2ccc(Cl)cc2Cl)n1` [Compound 103] displayed an inhibition at 10 µM of 23.4%.

For `CCCCCCOC(=O)Cn1nnc(-c2ccc(Cl)cc2)c1-c1ccc(Cl)cc1Cl` [Compound 55], testing at 10 µM (Table 1) gave an inhibition of 45.7%.

Consider `O=C(NC12CC3CC(CC(C3)C1)C2)n1nc(-c2ccc(Cl)cc2)c(-c2ccc(Cl)cc2)n1` [Compound 107], for which at 10 µM the inhibition (Table 2) was 19.7%.

In the case of `O=C(Cn1nc(-c2ccc(Cl)cc2)c(-c2ccc(Cl)cc2)n1)N1CCCCC1` [Compound 130], 10 µM produced 48.6% inhibition (Table 2).

Compound `O=C(c1ccccc1)n1nc(-c2ccccc2)c(-c2ccccc2)n1` [Compound 65] displayed an inhibition at 10 µM (Table 2) of 11.4%.

For the compound `O=C(Cn1nnc(-c2ccccc2)c1-c1ccccc1)OCc1ccccc1` [Compound 15], 10 µM produced 35.4% inhibition (Table 1).

The compound `O=C(Cn1nc(-c2ccc(Cl)cc2Cl)c(-c2ccc(Cl)cc2Cl)n1)NCc1ccccc1F` [Compound 173] gave a 50% inhibitory concentration (IC50) of 19.3 ± 3.5 nM.

As to `CCCCOC(=O)Cn1nnc(-c2cccc(C)c2)c1-c1cccc(C)c1` [Compound 63], under “Table 1”, testing at 10 µM gave an inhibition of 9.9%.

On to `O=C(Cn1nc(-c2ccc(Cl)cc2)c(-c2ccc(Cl)cc2Cl)n1)NCc1ccc(Cl)cc1Cl` [Compound 152], for which the IC50 is 711 ± 175 nM. Under “Table 2”, testing at 10 µM gave an inhibition of 90.5%.

As to `CCCCCCNC(=O)n1nc(-c2ccc(Cl)cc2Cl)c(-c2ccc(Cl)cc2Cl)n1` [Compound 99], the “CB1 Inhibition (%) (10 μM)” value (Table 2) was 6.60%.

`CCCCCCOC(=O)Cn1nnc(-c2ccc(Cl)cc2Cl)c1-c1ccc(Cl)cc1Cl` [Compound 57]: where the note is “Table 1”, the inhibition at 10 µM worked out at 55.7%.

`Cc1cc(C)cc(NC(=O)n2nc(-c3ccc(Cl)cc3)c(-c3ccc(Cl)cc3)n2)c1` [Compound 71] came in with an inhibition at 10 µM (Table 2) of 3.6%.

`CCN(CC)C(=O)Cn1nnc(-c2ccccc2)c1-c1ccccc1` [Compound 2]: the inhibition at 10 µM (Table 1) amounted to 22.6%.

Under “Table 1”, `CCCCCCCCOC(=O)Cn1nnc(-c2ccc(Cl)cc2)c1-c1ccc(Cl)cc1` [Compound 26] gave an inhibition at 10 µM of 51.2%.

Compound `O=C(Cn1nc(-c2ccc(Cl)cc2Cl)c(-c2ccc(Cl)cc2Cl)n1)N[C@H](CO)Cc1ccccc1` [Compound 132] displayed a half-inhibitory concentration (IC50) of 295 ± 112 nM. This compound also came in with an inhibition at 10 µM (Table 2) of 88.2%.

The compound `O=C(NCCc1ccccc1)n1nc(-c2ccc(Cl)cc2Cl)c(-c2ccc(Cl)cc2Cl)n1` [Compound 27] returned an inhibition at 10 µM (Table 1) of 46%.

Compound `O=C(Cn1nc(-c2ccc(Cl)cc2)c(-c2ccc(Cl)cc2Cl)n1)NCc1cccc2c1OCO2` [Compound 151] displayed an IC50 of 5970 ± 2600 nM. Further, at 10 µM the inhibition (Table 2) was 61.8%.

`CC(NC(=O)Cn1nc(-c2ccc(Cl)cc2)c(-c2ccc(Cl)cc2Cl)n1)c1ccccc1` (stereo not shown) [Compound 154] displayed an IC50 of 772 ± 446 nM. Besides, for the setting “Table 2”, the inhibition at 10 µM amounted to 95.2%.

For `O=C(Cn1nnc(-c2cccc(Cl)c2)c1-c1cccc(Cl)c1)N1CCCCC1` [Compound 11], the inhibition at 10 µM (Table 1) worked out at 20.4%.

As for `O=C(Cn1nnc(-c2ccc(Cl)cc2)c1-c1ccc(Cl)cc1)N1CCCCC1` [Compound 16], the inhibition at 10 µM (Table 1) came to 33%.

For the compound `CCCCCCCCC(=O)n1nc(-c2ccc(Cl)cc2)c(-c2ccc(Cl)cc2)n1` [Compound 85], 10 µM produced 18.3% inhibition (Table 2).

Compound `O=C(Cn1nnc(-c2ccc(Cl)cc2Cl)c1-c1ccc(Cl)cc1Cl)N1CCCCC1` [Compound 60] gave an inhibition at 10 µM (Table 1) of 55.7%.

`CC(C)[C@H](NC(=O)Cn1nc(-c2ccc(Cl)cc2)c(-c2ccc(Cl)cc2Cl)n1)C(O)(c1ccccc1)c1ccccc1` [Compound 144] returned an IC50 of 140 ± 63.1 nM. Moreover, the inhibition at 10 µM (Table 2) worked out at 89.5%.

For `CCCCCCCNC(=O)n1nc(-c2ccc(Cl)cc2Cl)c(-c2ccc(Cl)cc2Cl)n1` [Compound 89], testing at 10 µM (Table 2) gave an inhibition of 12.9%.

Regarding `CCCCCCCCNC(=O)NNC(=O)Cn1nnc(-c2ccc(Cl)cc2)c1-c1ccc(Cl)cc1` [Compound 49], for the setting “Table 1”, the inhibition at 10 µM was 30.3%.

With `CCCCOC(=O)Cn1cc(-c2ccccc2)nn1` [Compound 4], the inhibition at 10 µM (Table 1) is 9.6%.

Where the note is “Table 1”, `CCCCOC(=O)Cn1nnc(-c2ccc(Cl)cc2)c1-c1ccc(Cl)cc1Cl` [Compound 46] came in with an inhibition at 10 µM of 50.8%.

The compound `CCCCOC(=O)Cn1nnc(-c2ccccc2F)c1-c1ccccc1` [Compound 48] registered an inhibition at 10 µM (Table 1) of 36.1%.

Turning to `CCCCCCCOC(=O)Cn1nc(-c2ccc(Cl)cc2Cl)c(-c2ccc(Cl)cc2Cl)n1` [Compound 117], at 10 µM the inhibition (Table 2) was 47.5%.

As to `COc1ccc(CNC(=O)Cn2nc(-c3ccc(Cl)cc3)c(-c3ccc(Cl)cc3Cl)n2)cc1` [Compound 149], the IC50 amounted to 684 ± 428 nM. The same compound had an inhibition at 10 µM (Table 2) of 78.2%.

As for `CCCCCCCCNC(=O)n1nc(-c2ccc(Cl)cc2)c(-c2ccc(Cl)cc2Cl)n1` [Compound 96], the inhibition at 10 µM (Table 2) turned out to be 17.7%.

`COc1ccc(NC(=O)n2nc(-c3ccc(Cl)cc3)c(-c3ccc(Cl)cc3)n2)cc1` [Compound 69]: testing at 10 µM (Table 2) gave an inhibition of 9.9%.

Turning to `Cc1ccc(CNC(=O)Cn2nc(-c3ccc(Cl)cc3Cl)c(-c3ccc(Cl)cc3Cl)n2)cc1` [Compound 145], the IC50 came to 252 ± 75.1 nM. Moreover, at 10 µM the inhibition (Table 2) was 95%.

Regarding `CCCCCCOC(=O)Cn1nc(-c2ccc(Cl)cc2)c(-c2ccc(Cl)cc2Cl)n1` [Compound 114], where the note is “Table 2”, 10 µM produced 39.1% inhibition.

As for `CCCCCOC(=O)Cn1nnc(-c2ccc(Cl)cc2Cl)c1-c1ccc(Cl)cc1Cl` [Compound 58], for the setting “Table 1”, at 10 µM the inhibition was 58.3%.

Compound `CNC(=O)Cn1nnc(-c2ccccc2)c1-c1ccccc1` [Compound 9] registered an inhibition at 10 µM (Table 1) of 21.1%.

`CCCCOC(=O)Cn1nnc(-c2cccc(Br)c2)c1-c1cccc(Br)c1` [Compound 62] returned an inhibition at 10 µM (Table 1) of 18.3%.

Consider `CCCCCCCCNC(=O)n1nc(-c2ccc(Cl)cc2)c(-c2ccc(Cl)cc2)n1` [Compound 102], for which the “CB1 Inhibition (%) (10 μM)” value (Table 2) is recorded as 15.70%.
